Measurements reported in US20210267197A1, “PEPTIDES SIMILAR TO THE NATURAL PEPTAIBOL TRICHOGIN GA IV WITH PHYTOSANITARY ACTIVITIES” (UNIVERSITA' DEGLI STUDI DI PADOVA, priority 2018, published 2021).

Tests used:
Penicillium digitatum = test: In vitro inhibition of fungal spore germination, Penicillium digitatum; format: cell-based; conditions: for Concentration effective in vitro in inhibiting the germination of fungal spores with respect to the untreated control for at least 3 days: Penicillium digitatum; for Time for which spore germination of P. digitatum is inhibited: peptide at 15 μM, limited by duration of the experiment
Penicillium expansum = test: In vitro inhibition of fungal spore germination, Penicillium expansum; format: cell-based; conditions: for Concentration effective in vitro in inhibiting the germination of fungal spores with respect to the untreated control for at least 3 days: Penicillium expansum; for Time for which spore germination of P. expansum is inhibited: peptide at 15 μM, limited by duration of the experiment
Botrytis cinerea [1] = test: B. cinerea spore viability / germination assay with resazurin; format: cell-based; conditions: for Concentration effective in vitro in inhibiting the germination of fungal spores with respect to the untreated control for at least 3 days: Botrytis cinerea; for Time for which spore germination of B. cinerea is inhibited: limited by duration of the experiment
B. cinerea = test: Rot symptoms from B. cinerea on vine leaves; format: in vivo, Botrytis cinerea; conditions: 50 μM
Botrytis cinerea [2] = test: Bean leaves inoculated with Botrytis cinerea; format: in vivo
Fusarium graminearum = format: cell-based
Pyricularia oryzae = format: cell-based
Penicillium italicum = test: In vitro inhibition of fungal spore germination, Penicillium italicum; format: cell-based; conditions: for Concentration effective in vitro in inhibiting the germination of fungal spores with respect to the untreated control for at least 3 days: Penicillium italicum; for Time for which spore germination of Penicillium italicum is inhibited: peptide at 15 μM, limited by duration of the experiment
Plasmopara viticola = conditions: for Prevention of development of the disease and production of sporangia of P. viticola: 50 μM aqueous solution, disks of vine leaves
Protocol: The histogram represents the average incidence (±standard error) of infections from P. viticola 12 days after inoculation obtained by performing at least 3 independent biological replicates. […] The incidence is calculated as a percentage ratio of the leaf disks showing the sporulation of the pathogen compared to the total of inoculated disks.
Glera vine leaves were inoculated with sporangia from the oomycete Plasmopara viticola, the causal agent of vine peronospora. The disks infected and then treated with peptides were incubated at 20/22° C. in conditions of high humidity (>92% RH) and in the dark (optimal conditions for the development of the disease) until the end of the experiment.

1-octanoyl-Aib-Gly-Leu-Aib-Gly-Lys(HCl)-Leu-Aib-Gly-Ile-Lol [Peptide K6-Lol]
Concentration effective in vitro in inhibiting the germination of fungal spores with respect to the untreated control for at least 3 days (Penicillium digitatum): 15 µM
Concentration effective in vitro in inhibiting the germination of fungal spores with respect to the untreated control for at least 3 days (Penicillium expansum): 15 µM
Concentration effective in vitro in inhibiting the germination of fungal spores with respect to the untreated control for at least 3 days (Botrytis cinerea [1]): 15 µM

1-octanoyl-Aib-Gly-Leu-Aib-Lys(HCl)-Lys(HCl)-Leu-Aib-Gly-Ile-Leu-NH2 [PEP4-rink]
Reduction in the incidence of rot symptoms from B. cinerea on vine leaves (B. cinerea): 70%
Concentration effective in vitro in inhibiting the germination of fungal spores with respect to the untreated control for at least 3 days (Penicillium digitatum): 15 µM
Concentration effective in vitro in inhibiting the germination of fungal spores with respect to the untreated control for at least 3 days (Penicillium expansum): 15 µM
Reduction in the incidence of rot symptoms from B. cinerea on bean leaves (Botrytis cinerea [2]; 15 μM, 7 days after inoculation): 90%
Reduction in the incidence of B. cinerea (rot symptoms) on bean leaves (Botrytis cinerea [2]; 50 μM): 95%
Concentration effective in vitro in inhibiting the germination of fungal spores with respect to the untreated control for at least 3 days (Fusarium graminearum): 15 µM
Concentration effective in vitro in inhibiting the germination of fungal spores with respect to the untreated control for at least 3 days (Botrytis cinerea [1]): 3 µM
Time for which spore germination of B. cinerea is inhibited (Botrytis cinerea [1]; peptide at 3 μM): at least 14 days
Time for which spore germination of B. cinerea is inhibited (Botrytis cinerea [1]; peptide at 15 μM): at least 21 days

1-octanoyl-Aib-Gly-Leu-Aib-Lys(HCl)-Lys(HCl)-Leu-Aib-Gly-Ile-Lol [PEP4]
Concentration effective in vitro in inhibiting the germination of fungal spores with respect to the untreated control for at least 3 days (Pyricularia oryzae): 15 µM
Inhibition of spore germination of Pyricularia oryzae (Pyricularia oryzae; 15 μM): effectively inhibit the spore germination
Concentration effective in vitro in inhibiting the germination of fungal spores with respect to the untreated control for at least 3 days (Penicillium digitatum): 15 µM
Concentration effective in vitro in inhibiting the germination of fungal spores with respect to the untreated control for at least 3 days (Penicillium expansum): 15 µM
Protection of bean leaves against infection by Botrytis cinerea (Botrytis cinerea [2]; 50 μM aqueous solution, for at least seven days (duration of the experiment)): protects the bean leaves against the infection caused by Botrytis cinerea
Concentration effective in vitro in inhibiting the germination of fungal spores with respect to the untreated control for at least 3 days (Penicillium italicum): 15 µM
Germination of conidia of B. cinerea (Botrytis cinerea [1]; 50 μM, conidia 5×10^5/ml in PDB): germination of the conidia is not observed
Concentration effective in vitro in inhibiting the germination of fungal spores with respect to the untreated control for at least 3 days (Botrytis cinerea [1]): 3 µM
Time for which spore germination of B. cinerea is inhibited (Botrytis cinerea [1]; peptide at 3 μM): at least 7 days
Incidence of the disease (leaf disks showing sporulation / total inoculated disks) (Plasmopara viticola; 30 μM, 12 days after inoculation): < 20%
Prevention of development of the disease and production of sporangia of P. viticola (Plasmopara viticola): almost completely prevents both the development of the disease and the production of sporangia
Time of protection against P. viticola (no disease / no sporangia) (Plasmopara viticola; 50 μM, limited by duration of the experiment): 15 days

1-octanoyl-Aib-Gly-Leu-Aib-Lys(HCl)-Lys(HCl)-Leu-Leu-NH2 [PEP4-corto1-rink]
Time for which spore germination of P. digitatum is inhibited (Penicillium digitatum): for 6 days (duration of the experiment)
Time for which spore germination of P. digitatum is inhibited (Penicillium digitatum; listed as Pep4-cortol-rink): 6 days
Time for which spore germination of P. expansum is inhibited (Penicillium expansum): for 6 days (duration of the experiment)
Time for which spore germination of P. expansum is inhibited (Penicillium expansum; listed as Pep4-cortol-rink): 6 days
Concentration effective in vitro in inhibiting the germination of fungal spores with respect to the untreated control for at least 3 days (Penicillium italicum): 15 µM
Time for which spore germination of Penicillium italicum is inhibited (Penicillium italicum): for 6 days (duration of the experiment)
Time for which spore germination of Penicillium italicum is inhibited (Penicillium italicum; listed as Pep4-cortol-rink): 6 days

1-octanoyl-Aib-Gly-Leu-Aib-Lys(HCl)-Lys(HCl)-Leu-Lol [PEP4-corto]
Concentration effective in vitro in inhibiting the germination of fungal spores with respect to the untreated control for at least 3 days (Botrytis cinerea [1]): 3 µM
Prevention of development of the disease and production of sporangia of P. viticola (Plasmopara viticola): almost completely prevents the development of the disease and the production of sporangia

1-octanoyl-Aib-Lys(HCl)-Leu-Aib-Lys(HCl)-Gly-Leu-Aib-Gly-Ile-Lol [Peptide K25]
Concentration effective in vitro in inhibiting the germination of fungal spores with respect to the untreated control for at least 3 days (Penicillium digitatum): 15 µM
Time for which spore germination of P. digitatum is inhibited (Penicillium digitatum): of Penicillium digitatum for more than 5 days

1-octanoyl-Aib-Lys(HCl)-Lys(HCl)-Leu-Aib-Gly-Ile-Leu-NH2 [PEP4-corto2-rink]
Time for which spore germination of P. digitatum is inhibited (Penicillium digitatum; listed as Pep4-corto2-rink): 15 days
Time for which spore germination of P. expansum is inhibited (Penicillium expansum; listed as Pep4-corto2-rink): 15 days
Concentration effective in vitro in inhibiting the germination of fungal spores with respect to the untreated control for at least 3 days (Penicillium italicum): 15 µM
Time for which spore germination of Penicillium italicum is inhibited (Penicillium italicum; listed as Pep4-corto2-rink): 15 days
Time for which spore germination of B. cinerea is inhibited (Botrytis cinerea [1]; peptide at 15 μM, listed as Pep4-corto2-rink): 8 days
